Measured values: patent US20120122860A1, “SOLID FORMS OF SULFONAMIDES AND AMINO ACIDS” (Plexxikon, Inc., priority 2009, published 2012)

Key:
TEC = target: T1, TEC (Homo sapiens, UniProt P42680); assay: Kinase activity assay, TEC
T1 sequence (P42680 1-631): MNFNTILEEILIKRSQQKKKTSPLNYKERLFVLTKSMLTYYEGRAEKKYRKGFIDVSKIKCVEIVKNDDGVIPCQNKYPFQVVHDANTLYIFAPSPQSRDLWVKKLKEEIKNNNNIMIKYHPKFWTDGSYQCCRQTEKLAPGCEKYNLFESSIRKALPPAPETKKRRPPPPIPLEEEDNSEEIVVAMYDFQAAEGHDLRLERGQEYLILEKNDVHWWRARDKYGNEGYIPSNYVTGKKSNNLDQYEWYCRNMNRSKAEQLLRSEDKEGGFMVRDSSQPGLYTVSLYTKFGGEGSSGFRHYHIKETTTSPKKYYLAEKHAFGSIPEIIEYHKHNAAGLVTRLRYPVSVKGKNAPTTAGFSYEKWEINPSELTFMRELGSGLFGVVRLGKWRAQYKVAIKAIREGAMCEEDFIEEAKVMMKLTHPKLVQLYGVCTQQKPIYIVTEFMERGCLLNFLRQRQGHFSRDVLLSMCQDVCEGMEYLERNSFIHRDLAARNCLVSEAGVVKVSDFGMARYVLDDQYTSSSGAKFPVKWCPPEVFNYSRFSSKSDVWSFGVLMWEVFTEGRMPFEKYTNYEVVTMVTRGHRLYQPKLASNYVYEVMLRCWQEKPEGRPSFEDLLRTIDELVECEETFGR

B-Raf = B-Raf (Homo sapiens, UniProt P15056); assay: Kinase activity assay, B-Raf; assay type: biochemical; settings: read-out: activity toward kinase B-Raf, IC50
Sequence of B-Raf (P15056 whole entry): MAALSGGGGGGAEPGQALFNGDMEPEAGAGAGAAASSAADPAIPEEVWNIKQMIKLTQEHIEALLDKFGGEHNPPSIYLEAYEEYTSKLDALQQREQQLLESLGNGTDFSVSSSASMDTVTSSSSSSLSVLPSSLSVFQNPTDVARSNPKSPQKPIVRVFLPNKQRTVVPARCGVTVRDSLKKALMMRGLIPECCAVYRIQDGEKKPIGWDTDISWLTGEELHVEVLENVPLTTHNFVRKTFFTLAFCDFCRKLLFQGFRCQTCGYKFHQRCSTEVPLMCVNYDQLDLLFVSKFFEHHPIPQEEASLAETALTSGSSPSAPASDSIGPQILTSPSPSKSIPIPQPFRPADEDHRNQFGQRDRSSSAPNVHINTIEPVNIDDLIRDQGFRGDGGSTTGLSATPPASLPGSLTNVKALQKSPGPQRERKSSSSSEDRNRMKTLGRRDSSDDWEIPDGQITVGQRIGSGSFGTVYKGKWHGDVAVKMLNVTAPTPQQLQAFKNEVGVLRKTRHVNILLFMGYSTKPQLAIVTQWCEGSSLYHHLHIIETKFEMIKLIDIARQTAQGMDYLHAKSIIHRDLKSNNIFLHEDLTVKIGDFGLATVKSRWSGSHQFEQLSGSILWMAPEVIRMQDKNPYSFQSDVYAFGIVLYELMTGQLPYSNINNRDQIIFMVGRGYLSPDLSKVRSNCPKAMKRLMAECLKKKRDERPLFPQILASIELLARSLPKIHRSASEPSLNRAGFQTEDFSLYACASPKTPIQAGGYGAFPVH

Kdr = Kdr (Homo sapiens, UniProt P35968); assay: Kinase activity assay, Kdr
Src = Src (Homo sapiens, UniProt P12931); assay: Kinase activity assay, Src
Sequence of Src (P12931 whole entry): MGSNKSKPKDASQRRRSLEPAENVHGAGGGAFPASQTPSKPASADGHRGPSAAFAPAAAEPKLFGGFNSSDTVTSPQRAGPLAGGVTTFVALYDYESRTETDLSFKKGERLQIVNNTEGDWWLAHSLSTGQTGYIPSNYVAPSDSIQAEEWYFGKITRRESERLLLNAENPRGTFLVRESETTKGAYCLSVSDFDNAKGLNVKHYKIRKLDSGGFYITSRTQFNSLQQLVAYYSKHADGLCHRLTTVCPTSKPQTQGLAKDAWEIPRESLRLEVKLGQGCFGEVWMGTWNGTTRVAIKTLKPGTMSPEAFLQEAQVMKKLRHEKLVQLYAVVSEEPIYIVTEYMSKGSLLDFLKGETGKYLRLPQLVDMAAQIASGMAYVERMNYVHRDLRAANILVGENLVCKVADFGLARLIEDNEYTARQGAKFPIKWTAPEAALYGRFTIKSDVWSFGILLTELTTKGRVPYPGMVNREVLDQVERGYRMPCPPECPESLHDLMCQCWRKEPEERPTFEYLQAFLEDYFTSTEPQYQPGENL

C-Raf = C-Raf (Homo sapiens, UniProt P04049); assay: Kinase activity assay, C-Raf
Sequence of C-Raf (P04049 whole entry): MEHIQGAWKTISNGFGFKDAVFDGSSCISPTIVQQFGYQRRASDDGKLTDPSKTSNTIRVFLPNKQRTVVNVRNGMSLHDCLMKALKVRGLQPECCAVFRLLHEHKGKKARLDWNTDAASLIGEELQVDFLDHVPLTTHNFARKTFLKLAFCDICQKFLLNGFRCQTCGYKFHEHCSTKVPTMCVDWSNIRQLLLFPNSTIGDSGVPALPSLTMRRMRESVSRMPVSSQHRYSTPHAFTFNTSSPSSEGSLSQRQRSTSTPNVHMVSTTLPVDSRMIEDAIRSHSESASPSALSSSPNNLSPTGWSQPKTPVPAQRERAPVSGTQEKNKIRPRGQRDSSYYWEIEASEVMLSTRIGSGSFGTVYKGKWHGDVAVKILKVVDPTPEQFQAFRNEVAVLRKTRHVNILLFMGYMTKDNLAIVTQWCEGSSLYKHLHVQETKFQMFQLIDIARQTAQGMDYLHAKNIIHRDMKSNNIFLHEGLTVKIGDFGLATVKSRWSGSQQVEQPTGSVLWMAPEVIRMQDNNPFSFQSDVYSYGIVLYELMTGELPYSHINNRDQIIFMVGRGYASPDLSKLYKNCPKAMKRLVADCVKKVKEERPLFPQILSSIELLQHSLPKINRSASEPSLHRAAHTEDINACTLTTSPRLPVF

Kit = Kit (Homo sapiens, UniProt P10721); assay: Kinase activity assay, Kit
Sequence of Kit (P10721 26-976): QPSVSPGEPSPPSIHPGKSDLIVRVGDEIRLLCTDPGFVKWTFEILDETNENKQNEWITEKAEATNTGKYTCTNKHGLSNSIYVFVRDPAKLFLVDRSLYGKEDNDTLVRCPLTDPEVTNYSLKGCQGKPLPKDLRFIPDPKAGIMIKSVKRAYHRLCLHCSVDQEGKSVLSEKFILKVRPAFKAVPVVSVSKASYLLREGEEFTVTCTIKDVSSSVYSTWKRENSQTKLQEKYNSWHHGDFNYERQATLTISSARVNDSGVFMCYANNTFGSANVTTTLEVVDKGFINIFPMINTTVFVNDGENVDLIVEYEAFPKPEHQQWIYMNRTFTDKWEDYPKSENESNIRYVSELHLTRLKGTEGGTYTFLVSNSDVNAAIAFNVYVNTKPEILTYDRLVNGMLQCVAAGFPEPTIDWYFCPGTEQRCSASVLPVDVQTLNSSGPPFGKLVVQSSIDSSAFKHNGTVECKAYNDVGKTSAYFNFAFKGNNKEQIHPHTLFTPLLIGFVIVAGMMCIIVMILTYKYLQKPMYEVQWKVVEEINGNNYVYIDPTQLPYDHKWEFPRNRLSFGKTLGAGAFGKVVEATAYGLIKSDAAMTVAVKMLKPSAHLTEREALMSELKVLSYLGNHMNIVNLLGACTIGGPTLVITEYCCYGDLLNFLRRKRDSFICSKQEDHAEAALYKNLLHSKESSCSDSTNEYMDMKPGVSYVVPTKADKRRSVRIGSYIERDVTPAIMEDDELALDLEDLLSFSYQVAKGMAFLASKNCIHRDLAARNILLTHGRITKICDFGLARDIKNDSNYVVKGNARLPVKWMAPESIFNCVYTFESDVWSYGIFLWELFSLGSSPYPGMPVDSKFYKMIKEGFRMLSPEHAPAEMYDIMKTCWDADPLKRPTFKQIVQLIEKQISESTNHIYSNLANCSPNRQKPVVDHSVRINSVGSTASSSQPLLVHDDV

Btk = Btk (Homo sapiens, UniProt Q06187); assay: Kinase activity assay, Btk
Sequence of Btk (Q06187 whole entry): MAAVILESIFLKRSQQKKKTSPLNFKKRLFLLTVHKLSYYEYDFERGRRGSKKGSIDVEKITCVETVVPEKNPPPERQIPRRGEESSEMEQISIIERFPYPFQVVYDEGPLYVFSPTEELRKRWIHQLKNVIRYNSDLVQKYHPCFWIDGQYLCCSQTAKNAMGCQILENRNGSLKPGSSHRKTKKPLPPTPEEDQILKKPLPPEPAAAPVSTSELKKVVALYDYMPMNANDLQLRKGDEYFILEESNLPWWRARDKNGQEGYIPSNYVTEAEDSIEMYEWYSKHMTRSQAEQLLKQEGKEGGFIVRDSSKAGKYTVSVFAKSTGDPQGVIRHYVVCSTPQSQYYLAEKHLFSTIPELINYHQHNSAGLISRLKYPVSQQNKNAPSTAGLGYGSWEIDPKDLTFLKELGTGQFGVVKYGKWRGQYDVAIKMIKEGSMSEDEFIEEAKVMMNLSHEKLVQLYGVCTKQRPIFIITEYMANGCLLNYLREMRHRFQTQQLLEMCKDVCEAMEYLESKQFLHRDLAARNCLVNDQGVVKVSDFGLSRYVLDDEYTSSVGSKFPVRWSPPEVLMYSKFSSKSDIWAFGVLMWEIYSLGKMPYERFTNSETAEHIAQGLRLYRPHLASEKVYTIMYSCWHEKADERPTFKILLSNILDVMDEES

B-Raf V600E = B-Raf V600E (Homo sapiens, UniProt P15056, V600E); assay: Kinase activity assay, B-Raf V600E; assay type: biochemical; settings: read-out: activity toward kinase B-Raf V600E, IC50
Sequence of B-Raf V600E (P15056 whole entry V600E): as the sequence (P15056 whole entry) above, with V600E counted along it

A-Raf = target: T2, A-Raf (Homo sapiens, UniProt P10398); assay: Kinase activity assay, A-Raf
T2 sequence (P10398 1-606): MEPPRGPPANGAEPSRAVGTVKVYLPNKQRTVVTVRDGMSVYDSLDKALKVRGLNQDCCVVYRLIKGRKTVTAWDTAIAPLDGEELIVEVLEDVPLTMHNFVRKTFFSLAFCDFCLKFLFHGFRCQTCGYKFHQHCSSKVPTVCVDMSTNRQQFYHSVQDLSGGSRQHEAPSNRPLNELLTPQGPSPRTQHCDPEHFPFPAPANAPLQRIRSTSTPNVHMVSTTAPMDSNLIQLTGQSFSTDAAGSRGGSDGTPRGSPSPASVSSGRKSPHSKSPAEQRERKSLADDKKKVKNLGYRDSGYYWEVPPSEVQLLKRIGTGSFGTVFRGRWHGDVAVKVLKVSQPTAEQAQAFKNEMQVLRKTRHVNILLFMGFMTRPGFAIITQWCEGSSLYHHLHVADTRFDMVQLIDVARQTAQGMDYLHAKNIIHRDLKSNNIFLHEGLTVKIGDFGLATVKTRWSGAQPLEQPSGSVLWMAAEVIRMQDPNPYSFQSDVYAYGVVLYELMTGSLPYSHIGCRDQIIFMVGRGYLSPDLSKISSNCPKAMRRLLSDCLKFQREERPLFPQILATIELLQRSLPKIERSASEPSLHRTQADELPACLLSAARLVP

Fms = Fms (Homo sapiens, UniProt P07333); assay: Kinase activity assay, Fms
MAP4K4 = MAP4K4 (Homo sapiens, UniProt O95819); assay: Kinase activity assay, MAP4K4
Sequence of MAP4K4 (O95819 whole entry): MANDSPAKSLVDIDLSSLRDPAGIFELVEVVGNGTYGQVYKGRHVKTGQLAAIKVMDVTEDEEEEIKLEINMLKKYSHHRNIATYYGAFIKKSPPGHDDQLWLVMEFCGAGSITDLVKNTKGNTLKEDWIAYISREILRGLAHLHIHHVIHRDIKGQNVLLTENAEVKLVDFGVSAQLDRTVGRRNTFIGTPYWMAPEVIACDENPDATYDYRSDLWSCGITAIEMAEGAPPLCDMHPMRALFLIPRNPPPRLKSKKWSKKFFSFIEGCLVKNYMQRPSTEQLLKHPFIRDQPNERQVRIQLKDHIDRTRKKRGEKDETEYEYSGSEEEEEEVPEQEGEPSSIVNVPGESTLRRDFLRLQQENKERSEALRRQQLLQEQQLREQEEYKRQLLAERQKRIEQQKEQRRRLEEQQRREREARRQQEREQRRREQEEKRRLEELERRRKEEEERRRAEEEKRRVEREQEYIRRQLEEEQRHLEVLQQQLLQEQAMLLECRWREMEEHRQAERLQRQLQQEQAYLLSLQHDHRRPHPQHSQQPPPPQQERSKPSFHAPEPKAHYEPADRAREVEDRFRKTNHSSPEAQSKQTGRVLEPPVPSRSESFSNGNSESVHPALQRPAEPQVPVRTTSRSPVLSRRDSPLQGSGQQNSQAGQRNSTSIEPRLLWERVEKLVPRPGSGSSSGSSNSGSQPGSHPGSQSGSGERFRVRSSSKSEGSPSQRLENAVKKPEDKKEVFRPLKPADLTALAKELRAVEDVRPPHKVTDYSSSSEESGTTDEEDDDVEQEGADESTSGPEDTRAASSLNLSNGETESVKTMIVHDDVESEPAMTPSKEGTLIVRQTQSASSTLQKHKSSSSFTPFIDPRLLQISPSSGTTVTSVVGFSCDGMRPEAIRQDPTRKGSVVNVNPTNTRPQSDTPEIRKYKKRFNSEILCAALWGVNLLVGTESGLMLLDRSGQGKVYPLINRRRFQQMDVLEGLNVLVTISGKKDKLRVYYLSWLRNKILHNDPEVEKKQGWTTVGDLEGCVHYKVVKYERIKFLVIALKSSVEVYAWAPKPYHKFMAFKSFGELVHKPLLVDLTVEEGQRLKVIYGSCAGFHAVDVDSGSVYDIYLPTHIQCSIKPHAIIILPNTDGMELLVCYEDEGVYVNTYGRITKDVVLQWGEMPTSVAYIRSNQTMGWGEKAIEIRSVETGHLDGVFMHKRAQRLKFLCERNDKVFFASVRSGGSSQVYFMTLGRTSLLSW

Structure (SMILES) | IC50 (TEC) [µM] | IC50 (B-Raf) [µM] | IC50 (Kdr) [µM] | IC50 (Src) [µM] | IC50 (C-Raf) [µM] | IC50 (Kit) [µM] | IC50 (Btk) [µM] | IC50 (B-Raf V600E) [µM] | IC50 (A-Raf) [µM] | IC50 (Fms) [µM] | IC50 (MAP4K4) [µM]
CCCS(=O)(=O)Nc1ccc(F)c(C(=O)c2c[nH]c3ncc(-c4ccc(NS(C)(=O)=O)cc4)cc23)c1F [P-2165, Propane-1-sulfonic acid {2,4-difluoro-3-[5-(4-methanesulfonylamino-phenyl)-1H-pyrrolo[2,3-b]pyridine-3-carbonyl]-phenyl}-amide] |  | ≤ 10 | ≤ 10 | ≤ 10 | ≤ 10 | ≤ 10 | ≤ 10 | ≤ 10 | ≤ 10 | ≤ 10 | 
CCS(=O)(=O)Nc1ccc(F)c(C(=O)c2c[nH]c3ncc(-c4ccc(F)cc4)cc23)c1F [P-2270, Ethanesulfonic acid {2,4-difluoro-3-[5-(4-fluoro-phenyl)-1H-pyrrolo[2,3-b]pyridine-3-carbonyl]-phenyl}-amide] |  | ≤ 10 | ≤ 10 | ≤ 10 |  | ≤ 10 | ≤ 10 | ≤ 10 |  | ≤ 10 | ≤ 10
COc1ncc(-c2cnc3[nH]cc(C(=O)c4c(F)ccc(NS(=O)(=O)N5CCCC5)c4F)c3c2)cn1 [P-2400] | ≤ 10 | ≤ 10 | ≤ 10 | ≤ 10 | ≤ 10 | ≤ 10 | ≤ 10 | ≤ 10 |  |  | 
N#Cc1cnc2[nH]cc(C(=O)c3cccc(NS(=O)(=O)CC(F)(F)F)c3F)c2c1 [P-2414, 2,2,2-Trifluoro-ethanesulfonic acid [3-(5-cyano-1H-pyrrolo[2,3-b]pyridine-3-carbonyl)-2-fluoro-phenyl]-amide] | ≤ 10 | ≤ 10 |  | ≤ 10 | ≤ 10 |  | ≤ 10 | ≤ 10 |  |  | 
N#Cc1cnc2[nH]cc(C(=O)c3cccc(NS(=O)(=O)N4CCCC4)c3F)c2c1 [P-2420, Pyrrolidine-1-sulfonic acid [3-(5-cyano-1H-pyrrolo[2,3-b]pyridine-3-carbonyl)-2-fluoro-phenyl]-amide] |  | ≤ 10 |  |  | ≤ 10 |  | ≤ 10 | ≤ 10 | ≤ 10 |  | 
CCCS(=O)(=O)Nc1ccc(F)c(C(=O)c2c[nH]c3ncc(-c4cnn(C)c4)cc23)c1 [P-2431, Propane-1-sulfonic acid {4-fluoro-3-[5-(1-methyl-1H-pyrazol-4-yl)-1H-pyrrolo[2,3-b]pyridine-3-carbonyl]-phenyl}-amide] |  | ≤ 10 | ≤ 10 | ≤ 10 | ≤ 10 | ≤ 10 | ≤ 10 | ≤ 10 |  | ≤ 10 | 
O=C(c1cccc(NS(=O)(=O)C2CCCCC2)c1)c1c[nH]c2ncc(F)cc12 [P-2462, Cyclohexanesulfonic acid [3-(5-fluoro-1H-pyrrolo[2,3-b]pyridine-3-carbonyl)-phenyl]-amide] |  |  |  |  |  |  | ≤ 10 |  |  |  | ≤ 10

Continued, values first:

IC50 (TEC) [µM] | IC50 (B-Raf) [µM] | IC50 (Kdr) [µM] | IC50 (Src) [µM] | IC50 (C-Raf) [µM] | IC50 (Kit) [µM] | IC50 (Btk) [µM] | IC50 (B-Raf V600E) [µM] | IC50 (A-Raf) [µM] | IC50 (Fms) [µM] | IC50 (MAP4K4) [µM] | Structure (SMILES)
≤ 10 | ≤ 10 | ≤ 10 | ≤ 10 | ≤ 10 | ≤ 10 | ≤ 10 | ≤ 10 |  |  |  | N#Cc1cnc2[nH]cc(C(=O)c3cccc(NS(=O)(=O)c4ccccc4F)c3F)c2c1 [P-2051, N-[3-(5-Cyano-1H-pyrrolo[2,3-b]pyridine-3-carbonyl)-2-fluoro-phenyl]-2-fluoro-benzenesulfonamide]
≤ 10 | ≤ 10 | ≤ 10 | ≤ 10 | ≤ 10 | ≤ 10 | ≤ 10 | ≤ 10 |  |  |  | N#Cc1cnc2[nH]cc(C(=O)c3cccc(NS(=O)(=O)c4cc(F)ccc4F)c3F)c2c1 [P-2052, N-[3-(5-Cyano-1H-pyrrolo[2,3-b]pyridine-3-carbonyl)-2-fluoro-phenyl]-2,5-difluoro-benzenesulfonamide]
≤ 10 | ≤ 10 |  | ≤ 10 | ≤ 10 |  | ≤ 10 | ≤ 10 |  |  |  | N#Cc1cnc2[nH]cc(C(=O)c3cccc(NS(=O)(=O)c4cccc(F)c4)c3F)c2c1 [P-2053, N-[3-(5-Cyano-1H-pyrrolo[2,3-b]pyridine-3-carbonyl)-2-fluoro-phenyl]-3-fluoro-benzenesulfonamide]
≤ 10 | ≤ 10 | ≤ 10 | ≤ 10 | ≤ 10 | ≤ 10 | ≤ 10 | ≤ 10 |  |  |  | N#Cc1cnc2[nH]cc(C(=O)c3cccc(NS(=O)(=O)c4c(F)cccc4F)c3F)c2c1 [P-2054, N-[3-(5-Cyano-1H-pyrrolo[2,3-b]pyridine-3-carbonyl)-2-fluoro-phenyl]-2,6-difluoro-benzenesulfonamide]
≤ 10 | ≤ 10 |  | ≤ 10 | ≤ 10 |  | ≤ 10 | ≤ 10 |  |  |  | N#Cc1cnc2[nH]cc(C(=O)c3cccc(NS(=O)(=O)c4ccccn4)c3F)c2c1 [P-2087, Pyridine-2-sulfonic acid [3-(5-cyano-1H-pyrrolo[2,3-b]pyridine-3-carbonyl)-2-fluoro-phenyl]-amide]
 | ≤ 10 | ≤ 10 | ≤ 10 | ≤ 10 | ≤ 10 | ≤ 10 | ≤ 10 |  | ≤ 10 |  | CCCS(=O)(=O)Nc1ccc(F)c(C(=O)c2c[nH]c3ncc(-c4ccc(OCCCN(C)C)nc4)cc23)c1F [P-2178, Propane-1-sulfonic acid (3-{5-[6-(3-dimethylamino-propoxy)-pyridin-3-yl]-1H-pyrrolo[2,3-b]pyridine-3-carbonyl}-2,4-difluoro-phenyl)-amide]
 | ≤ 10 | ≤ 10 | ≤ 10 | ≤ 10 | ≤ 10 | ≤ 10 | ≤ 10 |  | ≤ 10 | ≤ 10 | CCCS(=O)(=O)Nc1ccc(F)c(C(=O)c2c[nH]c3ncc(-c4ccc(C#CCN(CC)CC)nc4)cc23)c1F [P-2222, Propane-1-sulfonic acid (3-{5-[6-(3-diethylamino-prop-1-ynyl)-pyridin-3-yl]-1H-pyrrolo[2,3-b]pyridine-3-carbonyl}-2,4-difluoro-phenyl)-amide]
 | ≤ 10 | ≤ 10 | ≤ 10 | ≤ 10 | ≤ 10 | ≤ 10 | ≤ 10 |  |  | ≤ 10 | CCCS(=O)(=O)Nc1ccc(F)c(C(=O)c2c[nH]c3ncc(-c4ccc(N(C)C)nc4)cc23)c1F [P-2229, Propane-1-sulfonic acid {3-[5-(6-dimethylamino-pyridin-3-yl)-1H-pyrrolo[2,3-b]pyridine-3-carbonyl]-2,4-difluoro-phenyl}-amide]
 | ≤ 10 | ≤ 10 | ≤ 10 | ≤ 10 | ≤ 10 | ≤ 10 | ≤ 10 | ≤ 10 | ≤ 10 | ≤ 10 | CCCS(=O)(=O)Nc1ccc(F)c(C(=O)c2c[nH]c3ncc(-c4ccc(OCCCN5CCCC5)nc4)cc23)c1F [P-2235, Propane-1-sulfonic acid (2,4-difluoro-3-{5-[6-(3-pyrrolidin-1-yl-propoxy)-pyridin-3-yl]-1H-pyrrolo[2,3-b]pyridine-3-carbonyl}-phenyl)-amide]
